Read-outs that look alike come from different tables or passages of the source.
Experiments:
[1] = tested on: EOC 216H primary ovarian cancer cells; assay: MTS viability, primary epithelial ovarian cancer cells EOC 216H; assay type: cell-based; conditions: Homo sapiens
Description: (§1) FIG. 2L to 2N. Effects of compounds 1, 56 or 69 on the viability of primary epithelial ovarian cancer cells grown as adherent and spheroid cultures. EOC cells were isolated from the ascites of ovarian cancer patients. Cells were seeded in regular 96-well plates and grown as adherent cultures. 24 h after seeding the cells were incubated with compounds 1, 56, or 69 for 48 h and the viability of the cells were determined with the MTS assay. Spheroid cultures were obtained by seeding the cells in ultra-low adhesion 96-well plates for 3 days. The spheroids were incubated with compounds 1, 56 or 69 for 3 days. At the end of the incubations, MTS reagent (20% vol/vol) was added and the plates were incubated for 1-4 h. The OD490 was read with a plate reader. Wells with media but no cells were treated in similar fashion and the values utilized as blank. The results represent the mean±standard deviation of 6 independent determinations.
(§2) 4.3.1.2. Isolation of primary epithelial ovarian cancer cells (EOC) from ascites fluid of ovarian cancer patients. The isolation of EOC cells from the ascites fluid of ovarian cancer patients was performed as described by Shepherd et al 2007, Nature protocols 1, 2643-2649). The cells were grown in DMEM/F12 supplemented with 10% FBS medium. 4.3.2. Isolation of breast cancer stem cells from BT-474, prostate cancer stem cells from DU145, and ovarian cancer stem cells from A2780cp cell lines and determination of the effect of GAELs on the viability of the cancer stem cells.

[2] = tested on: MiaPaCa2 cells; assay: MTS viability assay, MiaPaCa2 pancreas cancer cells; assay type: cell-based, human
Description: (§3) FIG. 2F. Effects of compounds 1-11 on the viability of MiaPaCa2 cells. MiaPaCa2 cells were cultured in DMEM medium supplemented with 10% FBS and 2.5% horse serum. Equal numbers were dispersed into 96-well plates. After 24 h, the cells were incubated with compounds 1-11 (0-30 μM) for 48 h. At the end of the incubation, MTS reagent (20% vol/vol) was added and the plates were incubated for 1-4 h. The OD490 was read with a plate reader. Wells with media but no cells were treated in similar fashion and the values utilized as blank. The results represent the mean±standard deviation of 6 independent determinations.
as §3, with “2I.” for “2F.”, “1, 69-72” for “1-11”, “1, 69-72” for “1-11 (0-30 μM)”
(§4) The cell lines were cultured from frozen stocks originally obtained from ATCC. MDA-MB-231, JIMT-1, DU145, U81, U251 cells were grown in DMEM medium. BT474, A2780s, A2780cp cells were grown in DMEM/F12 medium supplemented with 10% FBS. MiaPaCa2 was cultured in DMEM supplemented with 10% FBS and 2.5% horse serum. PC3 cells were cultured in F12K medium supplemented with 10% FBS. All the media were supplemented with penicillin/streptomycin.
(§5) The effects of the GAELs on the viability of the various epithelial cancer cell lines was determined as previously described. Briefly, equal numbers of the cells were dispersed into 96-well plates. After 24 h, the cells were incubated with the compounds (0-30 μM) for 48 h. At the end of the incubation, MTS reagent (20% vol/vol) was added and the plates were incubated for 1-4 h. The OD490 was read with a plate reader. Wells with media but no cells were treated in similar fashion and the values utilized as blank. The results represent the mean±standard deviation of 6 independent determinations.

[3] = tested on: EOC260 primary ovarian cancer cells; assay: MTS viability, primary epithelial ovarian cancer cells EOC260; assay type: cell-based; conditions: Homo sapiens; adherent culture, 48 h
Description: as §1
4.3.1.2. Isolation of primary epithelial ovarian cancer cells (EOC) from ascites fluid of ovarian cancer patients. The isolation of EOC cells from the ascites fluid of ovarian cancer patients was performed as described by Shepherd et al 2007, Nature protocols 1, 2643-2649). The cells were grown in DMEM/F12 supplemented with 10% FBS medium. 4.3.2. […]

[4] = tested on: EOC216B primary ovarian cancer cells; assay: MTS viability, primary epithelial ovarian cancer cells EOC216B; assay type: cell-based; conditions: Homo sapiens
Description: as §1, §2

[5] = tested on: EOC258 primary ovarian cancer cells; assay: MTS viability, primary epithelial ovarian cancer cells EOC258; assay type: cell-based; conditions: Homo sapiens
Description: as §1, §2

[6] = tested on: BT-474 cells; assay: MTS viability assay, BT-474 breast cancer cells; assay type: cell-based, human
Description: as §3, with “2C.” for “2F.”, “BT-474” for “MiaPaCa2”, “DMEM/F12” for “DMEM”, “FBS.” for “FBS and 2.5% horse serum.”
as §4, §5

[7] = adherent culture, 48 h, read-out: CC50 values EOC 216H Adherent
[8] = spheroid culture, 3 days, read-out: CC50 values EOC 216H Spheroid
[9] = Homo sapiens, MIA PaCa-2, Table 5, 48 h, read-out: CC50 Mlapaca2
[10] = Homo sapiens, MIA PaCa-2, Table 5, 48 h, read-out: CC90 Mlapaca2
[11] = 72 h, spheroid culture, 3 days, read-out: CC50 values EOC216B Spheroid
[12] = adherent culture, 48 h, read-out: CC50 values EOC216B Adherent
[13] = 72 h, spheroid culture, 3 days, read-out: CC50 values EOC258 Spheroid
[14] = adherent culture, 48 h, read-out: CC50 values EOC258 Adherent
[15] = Table 1A, 48 h, read-out: CC50 values MiaPaCa2
[16] = Table 1B, 48 h, read-out: CC90 values MiaPaCa2
[17] = Table 1A, 48 h, MTS, read-out: CC50 values BT474
[18] = Table 1B, 48 h, MTS, read-out: CC90 values BT474

Compound | CC50 [1, 7] | CC50 [1, 8] | CC50 [2, 9] | CC90 [2, 10] | CC50 [3] | CC50 [4, 11] | CC50 [4, 12] | CC50 [5, 13] | CC50 [5, 14] | CC50 [2, 15] | CC90 [2, 16] | CC50 [6, 17] | CC90 [6, 18] | also measured
CCCCCCCCCCCCCCCCOCC(CO[C@@H]1OC(CO)[C@H](O)[C@H](O)C1N)OC (stereo partly drawn) [Compound 69] | 1.02 µM | 1.5 µM | 7.5 µM | 18 µM | 0.3 µM | 1.25 µM | 0.56 µM | 1.2 µM | 1.4 µM | – | – | – | – | CC50 ([2]; Homo sapiens, MIA PaCa-2, Table 2A, 48 h, read-out: CC50 values MiaPaCa2): 7.5 µM; CC90 ([2]; Homo sapiens, MIA PaCa-2, Table 2B, 48 h, read-out: CC90 values MiaPaCa2): 18 µM
CCCCCCCCCCCCCCCCOC[C@@H](CN=[N+]=[N-])O[C@@H]1O[C@H](CO)[C@@H](O)[C@H](O)[C@H]1N [Compound 6, 1-O-Hexadecyloxy-2R-(2′-amino-2′-deoxy-β-D-glucopyranosyl)-3-azido glycerol] | – | – | – | – | – | – | – | – | – | 11.5 µM | 18.5 µM | 22 µM | 28 µM | CC50 ([6]; read-out: CC50 against BT 474 cell lines): 22 µM
CCCCCCCCCCCCCCCCOCCCO[C@@H]1O[C@H](CN)[C@@H](O)[C@H](O)[C@H]1N [Compound 4, 1-O-Hexadecyl-2-deoxy-3-O-(2′6′-diamino-2′,6′-dideoxy-β-D-glucopyranosyl)-sn-glycerol] | – | – | – | – | – | – | – | – | – | 6.5 µM | 13 µM | 8.5 µM | 17.5 µM | –
CCCCCCCCCCCCCCCCOCC(CO[C@@H]1O[C@H](CN)[C@@H](O)[C@H](O)[C@H]1N)O[C@@H]1O[C@H](CN)[C@@H](O)[C@H](O)[C@H]1N (stereo partly drawn) [Compound 5, 1-O-Hexadecyloxy-2S/R, 3-di(-2′,6′-diamino-2′, 6′-dideoxy-β-D-glucopyranosyl)-glycerol] | – | – | – | – | – | – | – | – | – | > 30 µM | > 30 µM | > 30 µM | > 30 µM | –
CCCCCCCCCCCCCCCCOC[C@H](COC1O[C@H](CNCCCCCCCCCCCCN)[C@@H](O)[C@H](O)[C@H]1N)OC (stereo partly drawn) [Compound 73, 1-O-Hexadecyl-2-O-methyl-3-O-[6′-N-(12-aminododecyl)-2′,6′-diamino-2′,6′-dideoxy-glucopyranoside]-sn-glycerol] | – | – | – | – | – | – | – | – | – | – | – | – | – | CC50 ([2]; Table 6, 48 h, read-out: MiaPaCa2 CC50): 4 µM; CC90 ([2]; Table 6, 48 h, read-out: MiaPaCa2 CC90): 6.6 µM; CC50 ([6]; Table 6, 48 h, MTS, read-out: BT474 CC50): 1.6 µM; CC90 ([6]; Table 6, 48 h, MTS, read-out: BT474 CC90): 4.2 µM
CCCCCCCCCCCCCCCCOC[C@H](CO[C@H]1O[C@H](CN)[C@@H](O)[C@H](O)[C@H]1N)OC [Compound 1, 1-O-Hexadecyl-2-O-methyl-3-O-(2′,6′-diamino-2′,6′-dideoxy-α-D-glucopyranosyl)-sn-glycerol] | 0.15 µM | 0.21 µM | 3.5 µM | 6.5 µM | 0.2 µM | 0.6 µM | 0.24 µM | 0.6 µM | 0.3 µM | – | – | – | – | CC50 ([2]; Homo sapiens, MIA PaCa-2, Table 1A, 48 h, read-out: CC50 values MiaPaCa2): 3.5 µM; CC90 ([2]; Homo sapiens, MIA PaCa-2, Table 1B, 48 h, read-out: CC90 values MiaPaCa2): 6.5 µM; CC50 ([6]; Homo sapiens, BT-474, Table 1A, 48 h, MTS, read-out: CC50 values BT474): 7.5 µM; CC90 ([6]; Homo sapiens, BT-474, Table 1B, 48 h, MTS, read-out: CC90 values BT474): 9.5 µM; CC50 ([6]; Homo sapiens, BT-474, Table 5, 48 h, MTS, read-out: CC50 B1474): 7.5 µM

From patent US10806746B2, “Di- and tri-cationic glycosylated antitumor ether lipids, L-gucosylated gaels and rhamnose-linked gaels as cytotoxic agents against epithelial cancer cells and cancer stem cells” (The University of Manitoba, priority 2014, dated 2020)
